Test results: patent US20250041313A1, “COMBINATION THERAPY FOR TREATMENT OF CANCER” (CITY OF HOPE, priority 2023, published 2025)

Key:
[1] = test system: H446 spheroids; test: Spheroid ATP assay (Cell titer glo); assay type: cell-based, human; settings: 72 h, Teri 1600 nM, Lur 1600 pM, Teri/Lur 1600 nM/pM
Experimental: Cell titer glo/ATP assay (Promega, Madison, WI) was used for ATP measurement in spheroids. After 72 h of drug treatments, intracellular spheroid's ATP concentration was measured by luminescence following the manufacturer protocol using Tecan Spark 10 plate reader.

[2] = test system: H69 cells; test: CCK-8 cytotoxicity assay, 72 h; assay type: cell-based; settings: Homo sapiens, NCI-H69
Text: We have determined cell cytotoxicity toward a specific drug, employing Cell Counting Kit-8 (Dojindo Molecular Technologies, Rockville, MD) as previously described (15).
The expression levels of DRP1 and DHODH in SCLC lines were compared with non-malignant BEAS 2B cells. Elevated levels of DRP1 and pDRP1 at Ser^616 were detected in all tested SCLC cells. Higher expression of DHODH was also observed in all seven SCLC cell lines (FIG. 1C). Previous studies have shown that Leflu and its active metabolite Teri regulate mitochondrial morphology (9,10,26). To find the effects of these two drugs on DRP1, AA docking (27) method was used to search for the best binding pocket for inhibitor binding. […] Leflu has a medium docking score of −5.6 kcal/mol. […] In vitro cytotoxicity effect of Teri and Leflu was tested in a panel of SCLC cell lines. Ten SCLC cell lines were treated with increasing concentrations of each drug for 72 h. […] In contrast, IC50 doses were much higher for Leflu. Upon oral administration of Leflu, over 80% of the drug is converted to Teri (28), indicating a potential reason for higher sensitivity to Teri. Two cell lines, SBC3 and SBC5, with IC50 2 μM and 30 μM, respectively, for Teri were used for additional experiments. […] The inhibitory effect was higher with Teri in both cell lines (FIG. 2A).

[3] = test system: H446 spheroids; test: Immunoblotting of spheroid lysates; assay type: cell-based, human; settings: for DRP1 phosphorylation at Ser616: Teri 1600 and 3200 nM
Experimental: SCLC total cell lysates were prepared using RIPA (radioimmunoprecipitation assay lysis buffer) lysis buffer. Protein concentration was determined using DC Protein Assay Kit Bio-Rad (Hercules, CA). Samples were then run on SDS-PAGE in 4-15% polyacrylamide gels and transferred onto Immobilon membranes (Millipore, MO), blocked, incubated with specific primary antibodies at 4° C. overnight, and subsequently developed with secondary antibodies. The following primary antibody were used: pan-Actin, Phospho-DRP1 (Ser^616), Phospho-DRP1 (Ser^637), Histone H2B (V^119), Phospho-Histone H2A.X (Ser^139), Phospho-P53 (Ser^15), P-53, Cleaved PARP (Asp^214) (D64E10), Phospho-Chk1 (Ser^345) (133D3) and p21 were from Cell Signaling Technology (City of Industry, CA), β-Actin (Sigma-Aldrich, St. Luis, MO), Phospho RNA Polymerase II (S2) antibody (Bethyl Lab, Montgomery, TX), RNA Polymerase II CTD4H8 (BioLegend, San Diego, CA), DHODH (E-8), DRP1 (C-5), GAPDH (0411), c-Myc (9E10), Tom20 (F-10), FisI (B-5), OPA1 (D-9), antibodies from Santa Cruz Biotechnology (Dallas, TX) and MFN2 (Abcam, Boston, MA) and Chk1, MDM2, Cyclin CDK4 and D1, and E2F1 (Proteintech, Rosemont, IL).
SBC3 and H446 cells were plated at a density of 10,000 cells per well in 96-well ULA round-bottomed plates (S-Bio, Hudson, NH) and incubated for 72 h at 37° C., 5% CO2, and 95% humidity. Spheroids were transferred to low cell attachment dishes, grown for two days, and treated with drug. After treatment, spheroid samples were run with Western blot assay. For spheroid mitochondria visualization, they were stained with 250 nM MitoTracker® Red CMXRos and Hoechst from ThermoFisher Scientific (Waltham, MA) for 2 h after drug treatment. Spheroids were washed, fixated with 4% PFA, transferred into 96-well flat glass-bottom black microplate (Cellvis, Mountain View, CA), and mounted in wells.

[4] = test system: H446 spheroids; test: Spheroid MitoSOX assay (mitochondrial superoxide); assay type: cell-based, human; settings: increase after 40 h
Experimental: The IncuCyte system recorded two days MitoSOX red dye (Thermo Fisher Scientific, Waltham, MA) penetration in live H446 spheroids. Spheroids were labeled with 5 μM of dye and red fluorescence was assessed by IncuCyte software. Fluorescence and brightfield images were acquired on an Axio Observer 7 (Carl Zeiss, Jena, Germany) inverted microscope, equipped with a 10×/0.45 NA Plan-Apochromat objective, TL halogen lamp, Colibri 7, filter set 90 HE, and captured on a Zeiss Axiocam 702 CMOS camera. Exposure times and wavelengths were 15 ms (red fluorescence), 9.4 ms (brightfield), BP 555/30 excitation filter, and QBP 592/25 emission filter.

[5] = test system: SBC3 cells; test: IncuCyte S3 live-cell proliferation; assay type: cell-based, human
Experimental: (§1) FIGS. 2A-2I. Teriflunomide (Teri) affects the phosphorylation of DRP1 at Ser^616 and mitochondrial/nuclear morphology. FIG. 2A: Effect of Teri and Leflu on SBC3, and SBC5 cells proliferation was recorded by the Sartorius IncuCyte S3 live-cell analysis system (n=2, four technical replicates). […] FIG. 2B: Effect of Teri on DRP1 phosphorylation in SBC3 cells. Cell lysates were subjected to immunoblotting (n=3, biological replicates). FIG. 2C: The expression ratio of level of pDRP1 Ser^616 and Ser^637 to actin was calculated via densitometric analysis of each blot using ImageJ software. The detected ratio of pDRP1 Ser^616 to pDRP1 Ser^637 was calculated and compared in SBC3 cells. […] FIGS. 2D-2E: Calculating pDRP1 Ser^616 fluorescence signal by QuPath software. Bar graphs mean±SE, *p<0.05; **p<0.01; ***p<0.001; ****p<0.0001. Results were analyzed by ANOVA with Tukey post-test. FIG. 2F: The surface areas of SBC3 mitochondria and nuclei were quantified with Imaris Cells modules. The minimal number of SBC3 cells analyzed for each group was 103 (M1 10 μM), and the maximal was 383 (Control). FIG. 2G: SBC5 mitochondria and nuclei surface areas were quantified with Imaris Cells modules. The minimal number of SBC5 cells analyzed for each group was 357 (MDIVI1 10 μM) and the maximal was 570 (Control). Results were analyzed by ANOVA with Tukey post-test, *p<0.05; **p<0.01; ****p<0.0001. Mitochondria in control cells were closely packed around the nuclei and treatment with Teri rearranged the mitochondrial network and extended the area from the nuclei. […] SBC3 cells were treated with drugs for 18 hours, fixed with paraformaldehyde and subjected to IF staining with Tom 20 antibody, nuclei were stained with Hoechst 33342. Scale bar 10 μm. Right inserts represent shape of mitochondria for control and treatments. FIG. 2I: High resolution confocal IF images of mitochondria in SBC5 cells. Scale bar 10 μm. Right inserts represent shape of mitochondria for control and treatments.

[6] = test system: SBC5 cells; test: IncuCyte S3 live-cell proliferation; assay type: cell-based, human
Experimental: as §1

SMILES | ATP level compared with the control [1] | IC50 [2] | p21 [3] | DRP1 phosphorylation at Ser616 [3] | mitochondrial superoxide levels (MitoSOX) [4] | cell proliferation [5] | cell proliferation [6] | CDK4 [3]
C/C(O)=C(\C#N)C(=O)Nc1ccc(C(F)(F)F)cc1 [Teriflunomide, teriflunomide] | approximately 80% | 17.1 µM | strongly elevated | dose-dependent inhibition | unaffected | inhibited cell proliferation in a dose-dependent manner | inhibited cell proliferation in a dose-dependent manner | 
Cc1oncc1C(=O)Nc1ccc(C(F)(F)F)cc1 [Leflunomide, leflunomide] |  | > 152 µM |  |  |  | inhibited cell proliferation in a dose-dependent manner | inhibited cell proliferation in a dose-dependent manner | 
COc1ccc2[nH]c3c(c2c1)CCN[C@]31CS[C@@H]2c3c(OC(C)=O)c(C)c4c(c3[C@H](COC1=O)N1[C@@H]2[C@H]2c3c(cc(C)c(OC)c3O)C[C@@H]([C@@H]1O)N2C)OCO4 [Lurbinectedin, lurbinectedin] | ~60% |  |  | reduction | unaffected |  |  | inactivated
